According to patent US20070275985A1, “Triazolopyrimidines” (Bayer Cropscience Aktiengesellschaft, priority 2003, published 2007):
Like-named read-outs stand apart in the source and are kept apart here.

Legend:
[1] = logP determination by HPLC (EEC-Directive 79/831 Annex V. A8, gradient method); assay type: physicochemical; settings: for logP: gradient method, acetonitrile/0.1% aqueous phosphoric acid; for chromatographic logP: value printed in preparation example text, read-out: HPLC: log P
[2] = test system: Erysiphe graminis f sp. tritici; assay: Erysiphe test (wheat)/protective; assay type: in vivo; settings: protective, 500 g/ha, assessment 7 days after inoculation
Source text: [table] One part by weight of active substance is mixed with the specified quantities of solvent and emulsifier and the concentrate diluted with water to the desired concentration to prepare a suitable active substance preparation. To test the protective efficiency, young plants are sprayed with the active substance preparation in the specified amount. After drying the spray coating, the plants are dusted with spores of Erysiphe graminis f sp. tritici. The plants are then placed in a glasshouse at a temperature of about 20° C. and a relative humidity of about 80% to promote the development of mildew pustules. The assessment is made 7 days after the inoculation. In this situation 0% means an efficiency corresponding to that of the control whereas an efficiency of 100% means that no attack is observed.

Row | logP [1] | SMILES | further results
1 | 2.16 | CC(C)C(C)Nc1c(-c2ncncc2Cl)c(Cl)nc2ncnn12 (stereo not shown) [Example 13] | –
2 | 2.91 | CC(Nc1c(-c2ncc(C(F)(F)F)cc2F)c(Cl)nc2ncnn12)C(F)(F)F (stereo not shown) [Example 6] | –
3 | 1.98 | C[C@@H](Nc1c(-c2ncncc2Cl)c(Cl)nc2ncnn12)C(F)(F)F [Example 8] | –

The next lines start with the molecule.

Row | SMILES | logP [1] | further results
4 | CC(C)C(C)Nc1c(-c2ncc(C(F)(F)F)cc2F)c(Cl)nc2ncnn12 (stereo not shown) [Example 7] | 3.13 | –
5 | C=C(C)CN(CC)c1c(-c2ncc(C(F)(F)F)cc2F)c(Cl)nc2ncnn12 [Example 4] | 3.51 | –
6 | CC(C)C(C)Nc1c(-c2ncccc2C(F)(F)F)c(Cl)nc2ncnn12 (stereo not shown) [Example 11] | 2.53 | –
7 | CC(C)CNc1c(-c2ncc(C(F)(F)F)cc2F)c(Cl)nc2ncnn12 [Example 3] | 2.85 | –
8 | C[C@H](Nc1c(-c2ncccc2C(F)(F)F)c(Cl)nc2ncnn12)C(F)(F)F [Example 1, N-{5-chloro-6-[3-(trifluoromethyl)-2-pyridinyl][1,2,4]triazolo[1,5-a]pyrimidin-7-yl}-N-[(1 S)-2,2,2-trifluor-1-methylethyl]amine] | – | chromatographic logP [1]: 2.22
9 | C[C@H](Nc1c(-c2ncncc2Cl)c(Cl)nc2ncnn12)C(F)(F)F [Example 2, N-[5-chloro-6-(5-chloro-4-pyrimidinyl)[1,2,4]triazolo[1,5-a]pyrimidin-7-yl]-N-[(1S)-2,2,2-trifluoro-1-methylethyl]amine] | – | efficiency [2]: higher than 90%; chromatographic logP ([1]; HPLC (gradient method, EEC-Directive 79/831 Annex V. A8)): 1.98
